Reference: US20230184743A1, “SCREENING METHODS TO IDENTIFY SMALL MOLECULE COMPOUNDS THAT PROMOTE OR INHIBIT THE GROWTH OF CIRCULATING TUMOR CELLS, AND USES THEREOF” (University of Southern California, priority 2020, published 2023)
Entries after “also recorded” stand apart in the source; their conditions may differ.

Tested on: CTC lines (BRx42, BRx50 and BRx68) spiked into healthy donors' blood
Assay: Spike-in experiment: growth of CTCs isolated from spiked healthy donors' blood
Type: cell-based, human
Conditions: RosetteSep isolated, cultured 20 days
Procedure: Spike-in experiment. Healthy volunteers' blood samples were collected. GFP-positive CTC lines (50 cells/mL) were spiked into the blood samples from healthy volunteers, and RosetteSep™ CTC Enrichment Cocktail Containing […] was used to enrich CTCs from spiked-in samples. Isolated CTCs were cultured in GravityTRAP™ ULA Plate 96 wells. Each patient CTC cell line was processed by 2 different researchers.
Validation on spiked-in CTCs. To mimic the CTC isolation procedure, spiked-in experiments were performed with 3 CTC lines (BRx42, BRx50 and BRx68) into healthy donors' blood. The RosettSep CTC isolation method was used to isolate the spiked CTCs, and separated isolated CTCs equally into wells with control media or with NAC or NAC plus P1C2. […] This confirmed the effects of these compounds on expanding CTCs that have been processed through an isolation procedure. NAC single cell clones form tumors with similar kinetics as controls. It was noticed that the most critical phase is the initial expansion from single CTCs. […] Therefore, treatment of these compounds was stopped at 24 days, and then prolonged the culture to generate several single cell clones. To evaluate the tumorigenicity of the single cell clones, GFP-Luciferase tagged BRx68 single clones generated with NAC treatment or control clones were injected into the mammary fat pats of female NSG mice.

## CC(=O)N[C@@H](CS)C(=O)O [NAC, N-acetyl-L-cysteine]
  growth of isolated CTCs compared to the control condition: promote growth of small numbers of CTCs; also recorded: significantly increased
